From patent US12435044B2, “Pyridazinone herbicides and pyridazinone intermediates used to prepare a herbicide” (FMC Corporation, priority 2018, dated 2025)

How the values were obtained:
Format in all cases: in vivo
kochia (Kochia scoparia) [1] = assay: Test A pre-/postemergence greenhouse test
From the text: (§1) Seeds of plant species selected from barnyardgrass (Echinochloa crus-galli), kochia (Kochia scoparia), ragweed (common ragweed, Ambrosia elatior), ryegrass, Italian (Lolium multiflorum), foxtail, giant (Setaria faberii), foxtail, green (Setaria viridis) and pigweed (Amaranthus retroflexus) were planted into a blend of loam soil and sand and treated preemergence with a directed soil spray using test chemicals formulated in a non-phytotoxic solvent mixture which included a surfactant.
(§2) At the same time, plants selected from these weed species and also wheat (Triticum aestivum), corn (Zea mays), blackgrass (Alopecurus myosuroides) and galium (catchweed bedstraw, Galium aparine) were planted in pots containing the same blend of loam soil and sand and treated with postemergence applications of test chemicals formulated in the same manner. Plants ranged in height from 2 to 10 cm and were in the one- to two-leaf stage for the postemergence treatment. Treated plants and untreated controls were maintained in a greenhouse for approximately 10 d, after which time all treated plants were compared to untreated controls and visually evaluated for injury. Plant response ratings, summarized in Table A, are based on a 0 to 100 scale where 0 is no effect and 100 is complete control. A dash (-) response means no test result.

[2] = system: pigweed (Amaranthus retroflexus); assay: Test A pre-/postemergence greenhouse test
From the text: as §1, §2

[3] = system: barnyardgrass (Echinochloa crus-galli); assay: Test A pre-/postemergence greenhouse test
From the text: as §1, §2

[4] = system: ryegrass, Italian (Lolium multiflorum); assay: Test A pre-/postemergence greenhouse test
From the text: as §1, §2

[5] = system: ragweed (common ragweed, Ambrosia elatior); assay: Test A pre-/postemergence greenhouse test
From the text: as §1, §2

[6] = system: wheat, spring (Triticum aestivum); assay: Test D pre-/postemergence controlled growth environment test; settings: Postemergence
From the text: (§3) Seeds of plant species selected from blackgrass (Alopecurus myosuroides), galium (catchweed bedstraw, Galium aparine), kochia (Kochia scoparia), oilseed rape (Brassica napus), barley, spring (Hordeum vulgare), wheat, spring (Triticum aestivum), oat, wild (Avena fatua), barley, winter (Hordeum vulgare) and wheat, winter (Triticum aestivum) were planted into a silt loam soil and treated preemergence with test chemicals formulated in a non-phytotoxic solvent mixture which included a surfactant.
(§4) At the same time, plants selected from these crop and weed species and also bluegrass (annual bluegrass, Poa annua), canarygrass (littleseed canarygrass, Phalaris minor), chickweed (common chickweed, Stellaria media), bromegrass, downy (downy bromegrass, Bromus tectorum), field poppy (Papaver rhoeas), field violet (Viola arvensis), foxtail, green (Setaria viridis), deadnettle (henbit deadnettle, Lamium amplexicaule), ryegrass, Italian (Lolium multiflorum), lambsquarters (Chenopodium album), pigweed (Amaranthus retroflexus), chamomile (scentless chamomile, Matricaria inodora), Russian thistle (Salsola kali), speedwell (bird's-eye speedwell, Veronica persica), buckwheat, wild (Polygonum convolvulus), mustard, wild (Sinapis arvensis), radish, wild (Raphanus raphanistrum), windgrass (Apera spica-venti), geranium, cutleaf (Geranium dissectum) and Canada thistle (Cirsium arvense) were planted in pots containing Redi-Earth® planting medium (Scotts Company, 14111 Scottslawn Road, Marysville, Ohio 43041) comprising spaghnum peat moss, vermiculite, wetting agent and starter nutrients and treated with postemergence applications of the test chemicals formulated in the same manner. Plants ranged in height from 2 to 18 cm (1- to 4-leaf stage). Treated plants and controls were maintained in a controlled growth environment for 14 to 21 d after which time all species were compared to controls and visually evaluated. Plant response ratings, summarized in Table D, are based on a scale of 0 to 100 where 0 is no effect and 100 is complete control. A dash (-) response means no test result.

[7] = system: barley, spring (Hordeum vulgare); assay: as above; settings: Postemergence
From the text: as §3, §4

[8] = system: oilseed rape (Brassica napus); assay: as above; settings: Postemergence
From the text: as §3, §4

kochia (Kochia scoparia) [9] = assay: as above; settings: Postemergence
From the text: as §3, §4

[10] = system: wheat, winter (Triticum aestivum); assay: as above; settings: Postemergence
From the text: as §3, §4

[11] = system: barley, winter (Hordeum vulgare); assay: as above; settings: Postemergence
From the text: as §3, §4

[12] = system: blackgrass (Alopecurus myosuroides); assay: as above; settings: Postemergence
From the text: as §3, §4

oat, wild (Avena fatua) = assay: as above; settings: Postemergence
From the text: as §3, §4

[13] = system: galium (catchweed bedstraw, Galium aparine); assay: as above; settings: Postemergence
From the text: as §3, §4

SMILES	Plant response rating (0 to 100 scale) (kochia (Kochia scoparia) [1]; Postemergence, 31 g ai/ha)	Plant response rating (0 to 100 scale) (kochia (Kochia scoparia) [1]; Postemergence, 125 g ai/ha)	Plant response rating (0 to 100 scale) (kochia (Kochia scoparia) [1]; Preemergence, 31 g ai/ha)	Plant response rating (0 to 100 scale) (kochia (Kochia scoparia) [1]; Preemergence, 125 g ai/ha)	Plant response rating (0 to 100 scale) ([2]; Postemergence, 31 g ai/ha)	Plant response rating (0 to 100 scale) ([2]; Postemergence, 125 g ai/ha)	Plant response rating (0 to 100 scale) ([2]; Preemergence, 31 g ai/ha)	Plant response rating (0 to 100 scale) ([2]; Preemergence, 125 g ai/ha)	Plant response rating (0 to 100 scale) ([3]; Postemergence, 31 g ai/ha)	Plant response rating (0 to 100 scale) ([3]; Postemergence, 125 g ai/ha)	Plant response rating (0 to 100 scale) ([3]; Preemergence, 31 g ai/ha)	Plant response rating (0 to 100 scale) ([3]; Preemergence, 125 g ai/ha)	Plant response rating (0 to 100 scale) ([4]; Postemergence, 31 g ai/ha)	Plant response rating (0 to 100 scale) ([4]; Postemergence, 125 g ai/ha)	Plant response rating (0 to 100 scale) ([4]; Preemergence, 31 g ai/ha)	Plant response rating (0 to 100 scale) ([4]; Preemergence, 125 g ai/ha)	Plant response rating (0 to 100 scale) ([5]; Postemergence, 31 g ai/ha)	Plant response rating (0 to 100 scale) ([5]; Postemergence, 125 g ai/ha)	Plant response rating (0 to 100 scale) ([5]; Preemergence, 31 g ai/ha)	Plant response rating (0 to 100 scale) ([5]; Preemergence, 125 g ai/ha)	further results
Cc1ccc2ccc(Cl)cc2c1-c1c(O)c(Cl)nn(C)c1=O [Cpd. No. 22]	60	100	10	90	100	100	100	100	100	100	100	100	100	100	90	100	100	100	100	100	Plant response rating, Wheat, Spring ([6]; 31 g ai/ha): 90; Plant response rating, Wheat, Spring ([6]; 62 g ai/ha): 96; Plant response rating, Barley, Spring ([7]; 31 g ai/ha): 67; Plant response rating, Barley, Spring ([7]; 62 g ai/ha): 85; Plant response rating, Oilseed Rape ([8]; 31 g ai/ha): 73; Plant response rating, Oilseed Rape ([8]; 62 g ai/ha): 90; Plant response rating, Kochia (kochia (Kochia scoparia) [9]; 31 g ai/ha): 37; Plant response rating, Kochia (kochia (Kochia scoparia) [9]; 62 g ai/ha): 58; Plant response rating, Wheat, Winter ([10]; 31 g ai/ha): 85; Plant response rating, Wheat, Winter ([10]; 62 g ai/ha): 95; Plant response rating, Barley, Winter ([11]; 31 g ai/ha): 47; Plant response rating, Barley, Winter ([11]; 62 g ai/ha): 73; Plant response rating, Blackgrass ([12]; 31 g ai/ha): 75; Plant response rating, Blackgrass ([12]; 62 g ai/ha): 82; Plant response rating, Oat, Wild (oat, wild (Avena fatua); 31 g ai/ha): 93; Plant response rating, Oat, Wild (oat, wild (Avena fatua); 62 g ai/ha): 98; Plant response rating, Galium ([13]; 31 g ai/ha): 92; Plant response rating, Galium ([13]; 62 g ai/ha): 96
Cc1ccc2ccc(F)cc2c1-c1c(O)c(Cl)nn(C)c1=O [Cpd. No. 21]	80	90	50	100	100	100	100	100	80	90	90	100	90	100	80	100	100	100	100	100	–
